In patent US8481750B2 (Boehringer Ingelheim International GmbH, priority 2009, dated 2013) one finds IC50 data, which are given here for 18 compounds.

Each structure is given as a SMILES string.

Chain of LFA-1 binding to ICAM-1 (P20701 26-1170): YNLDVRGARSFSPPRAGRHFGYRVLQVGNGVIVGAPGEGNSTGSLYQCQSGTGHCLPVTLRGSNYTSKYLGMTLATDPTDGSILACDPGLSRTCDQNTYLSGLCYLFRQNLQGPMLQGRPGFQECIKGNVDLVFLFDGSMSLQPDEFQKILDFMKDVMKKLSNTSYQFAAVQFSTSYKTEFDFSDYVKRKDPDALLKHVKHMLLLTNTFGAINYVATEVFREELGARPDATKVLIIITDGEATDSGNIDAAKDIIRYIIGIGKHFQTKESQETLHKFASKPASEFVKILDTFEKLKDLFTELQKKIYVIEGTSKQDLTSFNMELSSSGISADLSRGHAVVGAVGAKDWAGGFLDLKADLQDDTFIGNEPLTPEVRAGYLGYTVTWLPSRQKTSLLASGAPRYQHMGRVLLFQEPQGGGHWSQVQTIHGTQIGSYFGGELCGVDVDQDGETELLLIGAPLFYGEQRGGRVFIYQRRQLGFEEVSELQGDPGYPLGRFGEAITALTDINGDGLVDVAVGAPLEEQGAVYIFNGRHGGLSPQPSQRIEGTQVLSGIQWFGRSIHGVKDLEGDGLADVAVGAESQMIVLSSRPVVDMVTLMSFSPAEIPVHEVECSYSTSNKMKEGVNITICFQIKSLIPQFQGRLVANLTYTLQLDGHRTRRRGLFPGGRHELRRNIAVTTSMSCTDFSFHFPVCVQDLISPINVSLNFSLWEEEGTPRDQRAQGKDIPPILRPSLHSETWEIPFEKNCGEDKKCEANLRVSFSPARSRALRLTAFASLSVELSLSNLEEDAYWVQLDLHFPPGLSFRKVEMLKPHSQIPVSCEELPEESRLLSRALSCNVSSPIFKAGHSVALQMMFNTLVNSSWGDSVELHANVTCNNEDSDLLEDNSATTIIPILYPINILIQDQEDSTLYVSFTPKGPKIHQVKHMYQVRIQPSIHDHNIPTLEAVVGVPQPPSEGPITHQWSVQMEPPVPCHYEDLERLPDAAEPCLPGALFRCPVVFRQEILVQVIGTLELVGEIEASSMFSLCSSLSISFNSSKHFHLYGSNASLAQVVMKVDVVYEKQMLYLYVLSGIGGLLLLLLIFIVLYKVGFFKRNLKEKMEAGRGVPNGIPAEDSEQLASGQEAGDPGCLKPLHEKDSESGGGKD
Chain of LFA-1 binding to ICAM-1 (P05107 23-769): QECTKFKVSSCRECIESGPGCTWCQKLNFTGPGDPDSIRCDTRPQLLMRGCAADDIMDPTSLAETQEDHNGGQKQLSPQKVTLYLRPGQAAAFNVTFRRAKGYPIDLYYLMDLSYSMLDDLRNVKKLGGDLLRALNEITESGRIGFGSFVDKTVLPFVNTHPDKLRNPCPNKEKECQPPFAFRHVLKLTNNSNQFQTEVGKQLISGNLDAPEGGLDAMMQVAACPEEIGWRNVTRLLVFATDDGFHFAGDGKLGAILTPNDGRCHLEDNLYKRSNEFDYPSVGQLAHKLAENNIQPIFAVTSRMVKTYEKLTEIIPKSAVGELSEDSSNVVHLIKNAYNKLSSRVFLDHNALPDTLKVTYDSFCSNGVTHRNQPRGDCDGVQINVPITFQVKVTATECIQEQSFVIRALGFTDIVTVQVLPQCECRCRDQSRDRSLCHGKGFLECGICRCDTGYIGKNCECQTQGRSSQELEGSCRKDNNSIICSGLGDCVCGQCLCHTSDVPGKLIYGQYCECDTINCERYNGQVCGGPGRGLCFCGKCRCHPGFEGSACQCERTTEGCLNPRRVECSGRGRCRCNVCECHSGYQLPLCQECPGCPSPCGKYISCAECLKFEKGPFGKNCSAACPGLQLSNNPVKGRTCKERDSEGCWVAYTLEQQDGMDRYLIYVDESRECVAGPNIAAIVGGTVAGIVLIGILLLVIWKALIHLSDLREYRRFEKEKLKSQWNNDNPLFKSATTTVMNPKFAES

The test has as its target LFA-1 binding to ICAM-1 (Homo sapiens, UniProt P05107+P20701). Description: Inhibition of LFA-1 binding to ICAM-1 (LFA-1/Biotin-sICAM-1 AlphaScreen molecular assay). Conditions: highest compound concentration 1 μM in 1% DMSO, 37° C., 90 minutes. The method, boiled down: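 AlphaScreen binding of purified LFA-1 to biotinylated sICAM-1 in DPBS with Ca/Mg, 2 mM MgCl2, 0.1% BSA, pH 7.1; compound top concentration 1 μM in 1% DMSO, 90 min at 37 °C. Detection with TS2/4 anti-LFA-1 acceptor beads (10 μg/mL final) and streptavidin donor beads (15 μg/mL final), room temperature in the dark.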
On the technique in general: Alpha assays give light when donor and acceptor beads are brought close together.
As a reminder, the IC50 is the concentration needed to halve the response being measured. Low readings indicate inhibition by little substance, high ones a need for much substance. In the case of `C[C@@H](O)CNC(=O)c1ccc(C2(NC(=O)C3(NC(=O)c4cnc5n4[C@](C)(Cc4ccc(C#N)cc4)C(=O)N5c4cc(Cl)cc(Cl)c4)CC3)CC2)nc1` [compound 128], the IC50 came out at 0.47 nM.
`C[C@@]1(Cc2ccc(C#N)cc2)C(=O)N(c2cc(Cl)cc(Cl)c2)c2ncc(C(=O)NC3(C(=O)NC4(c5cc(C(=O)NC(CO)CO)ccn5)CC4)CC3)n21` [compound 129] had an IC50 of 0.55 nM.
With `C[C@@]1(Cc2ccc(C#N)cc2)C(=O)N(c2cc(Cl)cc(Cl)c2)c2ncc(C(=O)NC3(C(=O)NC4(c5ccc(C(=O)N6CC[C@H](O)C6)cn5)CC4)CC3)n21` [compound 130] the figure was 0.74 nM; with `C[C@@]1(Cc2ccc(C#N)cc2)C(=O)N(c2cc(Cl)cc(Cl)c2)c2ncc(C(=O)NC3(C(=O)NC4(c5cc(C(=O)NCC(=O)O)ccn5)CC4)CC3)n21` [compound 131], 0.45 nM.
Consider `CC(=O)NCCNC(=O)c1ccnc(C2(NC(=O)C3(NC(=O)c4cnc5n4[C@](C)(Cc4ccc(C#N)cc4)C(=O)N5c4cc(Cl)cc(Cl)c4)CC3)CC2)c1` [compound 132], for which the IC50 was 0.37 nM.
As to `C[C@@]1(Cc2ccc(C#N)cc2)C(=O)N(c2cc(Cl)cc(Cl)c2)c2ncc(C(=O)NC3(C(=O)NC4(c5ccc(C(=O)NCC(O)CO)cn5)CC4)CC3)n21` (stereo partly drawn) [compound 133], the IC50 was 1.4 nM.
With `C[C@@]1(Cc2ccc(C#N)cc2)C(=O)N(c2cc(Cl)cc(Cl)c2)c2ncc(C(=O)NC3(C(=O)NC4(c5ccc(C(=O)NCCc6ccccc6)cn5)CC4)CC3)n21` [compound 134] the figure was 2.2 nM; with `C[C@@]1(Cc2ccc(C#N)cc2)C(=O)N(c2cc(Cl)cc(Cl)c2)c2ncc(C(=O)NC3(C(=O)NC4(c5cc(C(=O)N6CCCC6)ccn5)CC4)CC3)n21` [compound 135], 0.79 nM.
`C[C@@]1(Cc2ccc(C#N)cc2)C(=O)N(c2cc(Cl)cc(Cl)c2)c2ncc(C(=O)NC3(C(=O)NC4(c5ccc(C(=O)N6CCCCC6CO)cn5)CC4)CC3)n21` (stereo partly drawn) [compound 137]: the IC50 came to 0.68 nM.
With `CCN(CC)C(=O)c1ccnc(C2(NC(=O)C3(NC(=O)c4cnc5n4[C@](C)(Cc4ccc(C#N)cc4)C(=O)N5c4cc(Cl)cc(Cl)c4)CC3)CC2)c1` [compound 138] the figure was 0.67 nM; with `CC(NC(=O)c1ccnc(C2(NC(=O)C3(NC(=O)c4cnc5n4[C@](C)(Cc4ccc(C#N)cc4)C(=O)N5c4cc(Cl)cc(Cl)c4)CC3)CC2)c1)c1cccnc1` (stereo partly drawn) [compound 139], 0.99 nM.
With `CNC(=O)c1ccc(C2(NC(=O)C3(NC(=O)c4cnc5n4[C@](C)(Cc4ccc(C#N)cc4)C(=O)N5c4cc(Cl)cc(Cl)c4)CC3)CC2)nc1` [compound 140] the figure was 1.5 nM; with `C[C@H](CO)NC(=O)c1ccc(C2(NC(=O)C3(NC(=O)c4cnc5n4[C@](C)(Cc4ccc(C#N)cc4)C(=O)N5c4cc(Cl)cc(Cl)c4)CC3)CC2)nc1` [compound 141], 0.8 nM.
With `C[C@@]1(Cc2ccc(C#N)cc2)C(=O)N(c2cc(Cl)cc(Cl)c2)c2ncc(C(=O)NC3(C(=O)NC4(c5cc(C(=O)NCC6CC6)ccn5)CC4)CC3)n21` [compound 142] the figure was 1.3 nM; with `C[C@@]1(Cc2ccc(C#N)cc2)C(=O)N(c2cc(Cl)cc(Cl)c2)c2ncc(C(=O)NC3(C(=O)NC4(c5cccc(C(=O)N6CC[C@H](O)C6)n5)CC4)CC3)n21` [compound 143], 0.53 nM; with `C[C@@]1(Cc2ccc(C#N)cc2)C(=O)N(c2cc(Cl)cc(Cl)c2)c2ncc(C(=O)NC3(C(=O)NC4(c5cc(C(=O)NCCc6ccncc6)ccn5)CC4)CC3)n21` [compound 144], 0.34 nM.
`C[C@@]1(Cc2ccc(C#N)cc2)C(=O)N(c2cc(Cl)cc(Cl)c2)c2ncc(C(=O)NC3(C(=O)NC4(c5cccc(C(=O)N6CCOCC6)n5)CC4)CC3)n21` [compound 145]: the IC50 turned out to be 0.56 nM.
Next, `CC(O)CNC(=O)c1ccnc(C2(NC(=O)C3(NC(=O)c4cnc5n4[C@](C)(Cc4ccc(C#N)cc4)C(=O)N5c4cc(Cl)cc(Cl)c4)CC3)CC2)c1` (stereo partly drawn) [compound 146]: 0.98 nM.
